Assay results as given in patent publication US6989378B2, “Testosterone derivative” (Akzo Nobel N.V., priority 1998, dated 2006).
Converted amounts (≈) assume the structure as drawn. Read-outs that look alike come from different tables or passages of the source.

What was measured:
monkeys = details: anabolic and antigonadotropic effects; cited from earlier work
[1] = Solubility in oil solvent (amount of compound dissolved per ml of solvent); format: physicochemical; details: for solubility at 15 min: oil or lipid, thermodynamic from solid, dissolved by heating in waterbath of 50° C. and Vortex shaking 15 minutes
Description: About 20–30 mgs of compound were powdered and then dissolved in as little solvent as necessary to dissolve all the visible particles. Dissolution was accomplished by heating in a waterbath of 50° C. and shaking on a Vortex™ shaker for 15 minutes. The solubility was calculated by determining the amount of compound (in mg) dissolved per ml of solvent.

rats = details: anabolic and antigonadotropic effects; cited from earlier work
[2] = arachis oil, read-out: solubility arachis oil
[3] = oleic acid, read-out: solubility oleic acid

SMILES	androgenic potency relative to testosterone (monkeys)	solubility at 15 min [1, 2] [mg/mL]	solubility at 15 min [1, 3] [mg/mL]	androgenic potency relative to testosterone (rats)	solubility in arachis oil compared with the other androgens ([1]; arachis oil, comparison in words)	solubility in oleic acid compared with the known androgens ([1]; oleic acid, comparison in words)
C[C@@H]1CC2=CC(=O)CC[C@@H]2[C@H]2CC[C@]3(C)[C@@H](O)CC[C@H]3[C@@H]21 [MENT, (7α,17β)-17-hydroxy-7-methylestr-4-en-3-one]	ten times more potent than testosterone	≤ 0.1	~15 (≈ 52 mM)	ten times more potent than testosterone		
CCCCCCCCCCC(=O)O[C@H]1CC[C@H]2[C@H]3[C@H](CC[C@]12C)[C@H]1CCC(=O)C=C1C[C@H]3C [MENT undecanoate, (7α,17β)-7-methyl-17-[(1-oxoundecyl)oxy]estr-4-en-3-one]		> 200	≥ 500		much better than that of any of the other androgens	better than expected
C[C@]12CC[C@H]3[C@@H](CCC4=CC(=O)CC[C@@]43C)[C@@H]1CC[C@@H]2O [testosterone]		< 0.1	~25 (≈ 86.7 mM)			
CCCCCCCCCCC(=O)O[C@H]1CC[C@H]2[C@@H]3CCC4=CC(=O)CC[C@]4(C)[C@H]3CC[C@]12C [testosterone undecanoate, (17β)-17-[(1-Oxoundecyl)oxy]androst-4-en-3-one]		~45 (≈ 98.5 mM)	200 to 250 (≈ 438 to 547 mM)			
